Experimental data as given in the NIST ThermoML archive (doi:10.1016/j.fluid.2014.07.015).
Numbers after ± are expanded uncertainties.

Conditions: 101.33 kPa, Liquid, Vibrating tube method

In the case of `CCCC[P+](C)(CCCC)CCCC.O=S(=O)([N-]S(=O)(=O)C(F)(F)F)C(F)(F)F`, the mass density (278.15 K) is reported as 1270.8 ± 1.4 kg/m3, the mass density (283.15 K) is reported as 1266.52 ± 1.4 kg/m3 and the mass density (288.15 K) is reported as 1262.25 ± 1.4 kg/m3. For the same compound, the mass density (293.15 K) was 1257.99 ± 1.4 kg/m3, the mass density (298.15 K) was 1253.72 ± 1.4 kg/m3 and the mass density (303.15 K) was 1249.58 ± 1.4 kg/m3. It also gave a mass density (308.15 K) of 1245.46 ± 1.4 kg/m3, a mass density (313.15 K) of 1241.32 ± 1.4 kg/m3 and a mass density (318.15 K) of 1237.2 ± 1.4 kg/m3. It also gave a mass density (323.15 K) of 1233.09 ± 1.4 kg/m3, a mass density (328.15 K) of 1228.98 ± 1.4 kg/m3 and a mass density (333.15 K) of 1224.88 ± 1.3 kg/m3. The mass density (338.15 K) was 1220.79 ± 1.3 kg/m3, the mass density (343.15 K) was 1216.71 ± 1.3 kg/m3 and the mass density (348.15 K) was 1212.65 ± 1.3 kg/m3. The mass density (353.15 K) was 1208.59 ± 1.3 kg/m3.
For `CCCCn1cc[n+](C)c1C.O=S(=O)([N-]S(=O)(=O)C(F)(F)F)C(F)(F)F`, the mass density (278.15 K) was 1437.39 ± 0.29 kg/m3, the mass density (283.15 K) was 1432.61 ± 0.28 kg/m3 and the mass density (288.15 K) was 1427.91 ± 0.28 kg/m3. For the same compound, the mass density (293.15 K) was 1423.31 ± 0.28 kg/m3, the mass density (298.15 K) was 1418.69 ± 0.28 kg/m3 and the mass density (303.15 K) was 1414.07 ± 0.28 kg/m3. It also gave a mass density (308.15 K) of 1409.46 ± 0.28 kg/m3, a mass density (313.15 K) of 1404.86 ± 0.27 kg/m3 and a mass density (318.15 K) of 1400.25 ± 0.27 kg/m3. For the same compound, the mass density (323.15 K) was 1395.67 ± 0.27 kg/m3, the mass density (328.15 K) was 1391.1 ± 0.27 kg/m3 and the mass density (333.15 K) was 1386.54 ± 0.27 kg/m3. For the same compound, the mass density (338.15 K) was 1381.98 ± 0.27 kg/m3, the mass density (343.15 K) was 1377.44 ± 0.27 kg/m3 and the mass density (348.15 K) was 1372.92 ± 0.26 kg/m3. The mass density (353.15 K) was 1368.39 ± 0.26 kg/m3.
